Assay results as given in patent US20050208496A1, “Methods of testing for bronchial asthma or chronic obstructive pulmonary disease” (Genox Research, Inc., priority 2002, published 2005).

System: respiratory epithelial cells

IL-13: human IL-13 (Peprotech, Inc.) added to the medium at 50 ng/mL to stimulate respiratory epithelial cells
IFIT4 (38584_at) expression, fold change upon IL-13 stimulation (lot 2, Day 3, AI method): 10.3 fold
IFITM1 (675_at) expression, fold change upon IL-13 stimulation (lot 2, Day 3, AI method): 3.6 fold
IL13RA2 (1016_s_at) expression fold change upon IL-13 stimulation (lot 2, Day 3, AI method): 15.9 fold
IL19 (47855_at) expression fold change (lot 2, Day 3, AI method): 10.9 fold
ILIRL1 (40322_at) expression, fold change upon IL-13 stimulation (lot 2, Day 3, AI method): 9.8 fold
IRF7 (36412_s_at) expression fold change (lot 2, Day 3, AI method): 3.4 fold
ISG15 (1107_s_at) expression, fold change upon IL-13 stimulation (lot 2, Day 3, AI method): 8.8 fold
ISG15 (38432_at) expression, fold change upon IL-13 stimulation (lot 2, Day 3, AI method): 12.6 fold
ISG20 (33304_at) expression, fold change upon IL-13 stimulation (lot 2, Day 3, AI method): 3.3 fold
KIAA0537 (33787_at) expression, fold change upon IL-13 stimulation (lot 2, Day 3, AI method): 4.8 fold
KIAA1199 (36070_at) expression, fold change upon IL-13 stimulation (lot 2, Day 3, AI method): 2.7 fold
KIAA1268 (57050_at) expression fold change (lot 2, Day 3, AI method): 2.2 fold
KIAAI268 (59516_at) expression fold change (lot 2, Day 3, AI method): 2.2 fold
KRT16 (601_s_at) expression fold change (lot 2, Day 3, AI method): 5.2 fold
LAMP3 (37168_at) expression, fold change upon IL-13 stimulation (lot 2, Day 3, AI method): 5.4 fold
LOC57118 (51085_at) expression fold change (lot 2, Day 3, AI method): 2.7 fold
LOC64116 (40456_at) expression, fold change upon IL-13 stimulation (lot 2, Day 3, AI method): 5.6 fold
MDA5 (51920_at) expression fold change (lot 2, Day 3, AI method): 3.3 fold
MFHAS1 (50388_at) expression fold change (lot 2, Day 3, AI method): 2.4 fold
MICB (35937_at) expression, fold change upon IL-13 stimulation (lot 2, Day 3, AI method): 2.7 fold
MKP-L (38272_at) expression, fold change upon IL-13 stimulation (lot 2, Day 3, AI method): 2.5 fold
MMP7 (668_s_at) expression, fold change upon IL-13 stimulation (lot 2, Day 3, AI method): 3.4 fold
MP1 (34839_at) expression, fold change upon IL-13 stimulation (lot 2, Day 3, AI method): 2 fold
MX2 (879_at) expression fold change (lot 2, Day 3, AI method): 6.9 fold
MXI (37014_at) expression fold change (lot 2, Day 3, AI method): 11.4 fold
NCF2 (41038_at) expression fold change (lot 2, Day 3, AI method): 4.4 fold
NK4 (39119_s_at) expression fold change upon IL-13 stimulation (lot 2, Day 3, AI method): 4.1 fold
NOS2A (1948_f_at) expression fold change upon IL-13 stimulation (lot 2, Day 3, AI method): 14.5 fold
NOS2A (48918_at) expression fold change (lot 2, Day 3, AI method): 25.4 fold
OAF (39695_at) expression, fold change upon IL-13 stimulation (lot 2, Day 3, AI method): 2.7 fold
OAS1 (38388_at) expression fold change upon IL-13 stimulation (lot 2, Day 3, AI method): 6.5 fold
OAS1 (38389_at) expression fold change upon IL-13 stimulation (lot 2, Day 3, AI method): 4.7 fold
OAS2 (39263_at) expression fold change upon IL-13 stimulation (lot 2, Day 3, AI method): 3.5 fold
OSF-2 (1451_s_at) expression fold change upon IL-13 stimulation (lot 2, Day 3, AI method): 86.8 fold
PKD2 (38120_at) expression, fold change upon IL-13 stimulation (lot 2, Day 3, AI method): 2.4 fold
PLOD2 (34795_at) expression fold change upon IL-13 stimulation (lot 2, Day 3, AI method): 2 fold
PLS1 (39951_at) expression fold change (lot 2, Day 3, AI method): 3.1 fold
PLSCR1 (32775_r_at) expression fold change upon IL-13 stimulation (lot 2, Day 3, AI method): 3 fold
PMCH (32005_at) expression fold change (lot 2, Day 3, AI method): 12.2 fold
PSMB9 (38287_at) expression fold change upon IL-13 stimulation (lot 2, Day 3, AI method): 2.7 fold
PVRL2 (50320_g_at) expression fold change (lot 2, Day 3, AI method): 2.2 fold
RASGRP1 (33291_at) expression fold change (lot 2, Day 3, AI method): 3.7 fold
RIG-1 (59215_at) expression fold change (lot 2, Day 3, AI method): 11.8 fold
SAMHD1 (34714_at) expression, fold change upon IL-13 stimulation (lot 2, Day 3, AI method): 3.7 fold
SCYB10 (431_at) expression fold change upon IL-13 stimulation (lot 2, Day 3, AI method): 4.9 fold
SCYB11 (35061_at) expression fold change upon IL-13 stimulation (lot 2, Day 3, AI method): 6.8 fold
SECTM1 (41045_at) expression, fold change upon IL-13 stimulation (lot 2, Day 3, AI method): 6.8 fold
SERPINB2 (37185_at) expression fold change (lot 2, Day 3, AI method): 4.1 fold
SERPINB4 (1549_s_at) expression fold change (lot 2, Day 3, AI method): 9.6 fold
SERPINB6 (34789_at) expression fold change (lot 2, Day 3, AI method): 2.1 fold
SIAT1 (41352_at) expression fold change upon IL-13 stimulation (lot 2, Day 3, AI method): 3.9 fold
SLC26A4, pendrin (36376_at) expression fold change (lot 2, Day 3, AI method): 118.3 fold
SSI-1 (41592_at) expression, fold change upon IL-13 stimulation (lot 2, Day 3, AI method): 15.5 fold
STAT1 (32860_g_at) expression fold change (lot 2, Day 3, AI method): 2.1 fold
STAT1 (33338_at) expression fold change (lot 2, Day 3, AI method): 5.8 fold
STAT1 (33339_g_at) expression fold change (lot 2, Day 3, AI method): 3.2 fold
TGFB2 (1262_s_at) expression fold change upon IL-13 stimulation (lot 2, Day 3, AI method): 4.1 fold
TGM2 (38404_at) expression fold change upon IL-13 stimulation (lot 2, Day 3, AI method): 2.1 fold
THBS1 (115_at) expression fold change upon IL-13 stimulation (lot 2, Day 3, AI method): 4.1 fold
TSPAN-3 (38612_at) expression, fold change upon IL-13 stimulation (lot 2, Day 3, AI method): 2.5 fold
UBE2L6 (40505_at) expression fold change upon IL-13 stimulation (lot 2, Day 3, AI method): 2.1 fold
UFD1L (811_at) expression, fold change upon IL-13 stimulation (lot 2, Day 3, AI method): 3.1 fold
WARS (38121_at) expression fold change upon IL-13 stimulation (lot 2, Day 3, AI method): 8.7 fold
cig5 (38549_at) expression, fold change upon IL-13 stimulation (lot 2, Day 3, AI method): 14.3 fold
diubiquitin (39959_at) expression, fold change upon IL-13 stimulation (lot 2, Day 3, AI method): 16.3 fold
AA167714 (54897_at) expression fold change (lot 2, Day 7, AI method): 4.7 fold
AA420479 (52539_at) expression fold change (lot 2, Day 7, AI method): 10.1 fold
AA541787 (52622_at) expression fold change (lot 2, Day 7, AI method): 3.9 fold
AA582926 (52307_at) expression fold change (lot 2, Day 7, AI method): 3.7 fold
AA604375 (44127_at) expression fold change (lot 2, Day 7, AI method): 3.9 fold
ACP5 (677_s_at) expression, fold change upon IL-13 stimulation (lot 2, Day 7, AI method): 2.8 fold
ADAM8 (40712_at) expression, fold change upon IL-13 stimulation (lot 2, Day 7, AI method): 4.5 fold
ADAM28 (35479_at) expression, fold change upon IL-13 stimulation (lot 2, Day 7, AI method): 3.7 fold
AI565105 (54886_at) expression fold change (lot 2, Day 7, AI method): 2.4 fold
AI659927 (54033_at) expression fold change (lot 2, Day 7, AI method): 3 fold
AI700705 (46658_at) expression fold change (lot 2, Day 7, AI method): 2.5 fold
AI821796 (57694_at) expression fold change (lot 2, Day 7, AI method): 2.5 fold
AI989346 (52327_s_at) expression fold change (lot 2, Day 7, AI method): 2.5 fold
AKAP2 (35985_at) expression, fold change upon IL-13 stimulation (lot 2, Day 7, AI method): 7.6 fold
AKAP2 (48035_at) expression fold change (lot 2, Day 7, AI method): 6.4 fold
AKAP10 (36632_at) expression, fold change upon IL-13 stimulation (lot 2, Day 7, AI method): 2.4 fold
ALOX15 (34636_at) expression, fold change upon IL-13 stimulation (lot 2, Day 7, AI method): 322.1 fold
ARHE (35803_at) expression fold change upon IL-13 stimulation (lot 2, Day 7, AI method): 2 fold
ARL7 (57151_at) expression fold change (lot 2, Day 7, AI method): 5.3 fold
AW019985 (48826_s_at) expression fold change (lot 2, Day 7, AI method): 14.7 fold
AXL (38433_at) expression, fold change upon IL-13 stimulation (lot 2, Day 7, AI method): 7.5 fold
BAL (52167_at) expression fold change (lot 2, Day 7, AI method): 1.6 fold
BIG2 (34484_at) expression, fold change upon IL-13 stimulation (lot 2, Day 7, AI method): 2.9 fold
BST2 (39061_at) expression, fold change upon IL-13 stimulation (lot 2, Day 7, AI method): 3.1 fold
C1S (40496_at) expression, fold change upon IL-13 stimulation (lot 2, Day 7, AI method): 4.1 fold
C21orf11 (58957_at) expression fold change (lot 2, Day 7, AI method): 2.4 fold
CDH6 (1620_at) expression fold change upon IL-13 stimulation (lot 2, Day 7, AI method): 12.1 fold
CDH6 (57421_at) expression fold change (lot 2, Day 7, AI method): 3.7 fold
CDH26 (46916_at) expression fold change (lot 2, Day 7, AI method): 5.4 fold
CH25H (32363_at) expression, fold change upon IL-13 stimulation (lot 2, Day 7, AI method): 12 fold
CLDN1 (46260_at) expression fold change (lot 2, Day 7, AI method): 3.6 fold
CLDN4 (35276_at) expression, fold change upon IL-13 stimulation (lot 2, Day 7, AI method): 23 fold
CLDN5 (38995_at) expression, fold change upon IL-13 stimulation (lot 2, Day 7, AI method): 8.3 fold
CTSC (133_at) expression, fold change upon IL-13 stimulation (lot 2, Day 7, AI method): 2.2 fold
CXCL16 (44095_at) expression fold change (lot 2, Day 7, AI method): 2 fold
DBCCR1 (40292_at) expression, fold change upon IL-13 stimulation (lot 2, Day 7, AI method): 19.3 fold
DD96 (31610_at) expression, fold change upon IL-13 stimulation (lot 2, Day 7, AI method): 2.5 fold
DDIT3 (39420_at) expression, fold change upon IL-13 stimulation (lot 2, Day 7, AI method): 29.5 fold
DKFZP564O0823 (41402_at) expression, fold change upon IL-13 stimulation (lot 2, Day 7, AI method): 4.6 fold
DKFZP566J091 (57197_at) expression fold change (lot 2, Day 7, AI method): 15.2 fold
DKFZp564N1116 (37784_at) expression, fold change upon IL-13 stimulation (lot 2, Day 7, AI method): 7.8 fold
